Source: patent US11149316B2, “Methods for detecting inactivation of the homologous recombination pathway (BRCA1/2) in human tumors” (INSTITUT CURIE, priority 2013, dated 2021)

Test system: triple-negative breast tumors
Assay: Cisplatin treatment of patients with triple-negative breast tumors, response by Miller-Payne score (GSE28330; Cisplatin-1 and Cisplatin-2 trials)
Type: in vivo, human
Description: Two publically available data sets from clinical trial of Cisplatin treatment of patients with triple-negative breast tumors [GSE28330 GEO database][59] were processed and the number of LST_10 Mb was calculated for each tumor with good quality of measured profile. Genomic profiles were measured by two types of chip: Affymetrix Oncoscan 70K (Dataset 2) and Oncoscan 300K (Dataset 1). Information about mutational status of BRCA1/2 was available for some tumors. Response to treatment was measured by Miller-Payne score, where 4 and 5 were considered as “positive response”, while scores <4 were considered as “no response” [59] Case by case and summary results are presented in Table 2 and Tables 3-5 (statistical comparisons were performed by the Fisher exact test).
(i) TCGA cohort: 467 tumors with high quality SNP-array profile and available normal/tumor exome sequencing results in variant call format (vcf) from the TCGA Breast Invasive carcinoma dataset were used. (ii) In-house TNBC cohort: a series of 104 TNBC enriched in BRCAi germline mutated cased. (iii) the publically available data from Cisplatin-1 and Cisplatin-2 clinical trials cohorts: 54 TNBCs with suitable quality of Oncoscan (Affymetrix) array profile were obtained from public GEO repository GSE28330 (66).
HRD is linked to the response to platinum based chemotherapy. Birkbak et al. analyzed SNParray profiles from a series of 79 patients with TNBC, including 28 patients treated by cisplatin prior to surgery (Cisplatin-1 trial) and 51 patients treated with cisplatin in addition to bevacizumab (Cisplatin-2 trial) (59).

Q: Which “Non Responders (number of tumors)” value (BRCA1/2 inactivated tumors) does the source give for `N.N.[Cl][Pt][Cl]` [Cisplatin, cisplatin] here?
A: 8

Q: What about the “Responders (number of tumors)” value (BRCA1/2 inactivated tumors) of the same molecule?
A: 9

Q: What about the “Miller Payne Response Score 4 (CR), number of tumors” value (LST^hi tumors) of the same molecule?
A: 7

Q: And the “Miller Payne Response Score 5 (pCR), number of tumors” value (LST^hi tumors)?
A: 11

Q: And the “Miller Payne Response Score 4 (CR), number of tumors” value (LST^lo tumors)?
A: 1

Q: What about the “Miller Payne Response Score 5 (pCR), number of tumors” value (LST^lo tumors) of the same molecule?
A: 0

Q: What about the “Non Responders (Miller-Payne 0-3), number of tumors” value (LST_high tumors) of the same molecule?
A: 15

Q: What about the “Responders (Miller-Payne 4-5), number of tumors” value (LST_high tumors) of the same molecule?
A: 18

Q: And the “Responders (Miller-Payne 4-5), number of tumors” value (LST_high tumors, listed as cisplatin)?
A: 18/33

Q: What about the “Non Responders (Miller-Payne 0-3), number of tumors” value (LST_low tumors) of the same molecule?
A: 20

Q: What about the “Responders (Miller-Payne 4-5), number of tumors” value (LST_low tumors) of the same molecule?
A: 1

Q: What about the “Responders (Miller-Payne 4-5), number of tumors” value (LST_low tumors, listed as cisplatin) of the same molecule?
A: 1/21

Q: What about the “Non Responders (number of tumors)” value (NON BRCA1/2 or NA tumors) of the same molecule?
A: 27

Q: And the “Responders (number of tumors)” value (NON BRCA1/2 or NA tumors)?
A: 10
